{"source": "patent US11089783B2", "about": "“2-(het)aryl-substituted fused heterocycle derivatives as pesticides” (Bayer Aktiengesellschaft, priority 2017, dated 2021)", "assay_type_in_all_cases": "in vivo", "key": {"Ctenocephalides felis": {"test_system": "Ctenocephalides felis", "assay": "Ctenocephalides felis oral test", "details": "100 ppm, after 2 days", "method": "Solvent: dimethyl sulfoxide To produce a suitable active ingredient formulation, 10 mg of active ingredient are mixed with 0.5 ml of dimethyl sulfoxide. Dilution with citrated cattle blood gives the desired concentration. About 20 unfed adult cat fleas (Ctenocephalides felis) are placed into a chamber which is closed at the top and bottom with gauze. A metal cylinder whose bottom end is closed with parafilm is placed onto the chamber. The cylinder contains the blood/active ingredient formulation, which can be imbibed by the fleas through the parafilm membrane. After 2 days, the kill in % is determined. 100% means that all of the fleas have been killed; 0% means that none of the fleas have been killed."}, "Meloidogyne incognita": {"test_system": "Meloidogyne incognita", "assay": "Meloidogyne incognita test (MELGIN)", "details": "Meloidogyne incognita, 336 h, 14 days (14 dat), read-out: efficacy (nematicidal, gall formation)", "summary_of_the_method": "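Sand with lettuce seeds, M. incognita egg/larvae suspension and aqueous dilution of compound concentrate. Nematicidal efficacy scored from gall (root-knot) formation after 14 days or the desired time, as % relative to untreated control (100% = no galls; 0% = as control).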"}, "Myzus persicae": {"test_system": "Myzus persicae", "assay": "Myzus persicae spray test (MYZUPE), Chinese cabbage leaf discs", "details": "Myzus persicae, foliar, 120 h; for Emax at 4 g/ha: MYZUPE, 5 dat, read-out: % efficacy", "summary_of_the_method": "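Leaf discs of Chinese cabbage carrying all stages of green peach aphid were sprayed with compound formulated in solvent and diluted with water containing emulsifier at 1000 ppm. Percent efficacy (100% = all aphids dead) was scored after 5 days or after the desired time.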"}, "Phaedon cochleariae": {"test_system": "Phaedon cochleariae", "assay": "Phaedon cochleariae spray test (PHAECO), Chinese cabbage leaf discs", "details": "Phaedon cochleariae, foliar, 168 h; for pest or weed control at 100 g/ha: 7 days (7 dat), read-out: efficacy", "summary_of_the_method": "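Chinese cabbage (Brassica pekinensis) leaf discs sprayed with compound in water with 1000 ppm emulsifier, then after drying infested with Phaedon cochleariae larvae. Efficacy (% larvae killed) scored after 7 days or the chosen interval.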"}, "Tetranychus urticae": {"test_system": "Tetranychus urticae", "assay": "Tetranychus urticae spray test, OP-resistant (TETRUR)", "summary_of_the_method": "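Bean leaf discs infested with all stages of OP-resistant Tetranychus urticae were sprayed with compound formulated in solvent and water containing 1000 ppm emulsifier. Efficacy was scored after 6 days as % mites killed (100% = all killed).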"}, "Nezara viridula": {"test_system": "Nezara viridula", "assay": "Nezara viridula spray test (NEZARA / NEZAVI)", "details": "Nezara viridula, 96 h, 4 g/ha, 4 dat, read-out: % efficacy", "summary_of_the_method": "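Barley plants infested with Nezara viridula larvae were sprayed with active ingredient in solvent/emulsifier water (1000 ppm emulsifier; ammonium salt or penetrant at 1000 ppm if added). Efficacy scored as % mortality after the set time (100% = all bugs killed).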"}, "[1]": {"details": "5 days (5 dat), read-out: efficacy"}, "[2]": {"details": "Tetranychus urticae, 144 h, TETRUR, 6 dat, read-out: % efficacy"}}}
{"smiles": "CCS(=O)(=O)c1ccc(NC(=O)NC)nc1-c1nc2cc(C(F)(F)C(F)(F)F)nnc2n1C", "note": "[Example I-08, 1-{5-(ethylsulfonyl)-6-[7-methyl-3-(pentafluoroethyl)-7H-imidazo[4,5-c]pyridazin-6-yl]pyridin-2-yl}-3-methylurea]", "values": [{"measurement": "efficacy (kill)", "setting": "Ctenocephalides felis", "result": 100, "unit": "%"}, {"measurement": "pest or weed control at 20 ppm", "setting": "Meloidogyne incognita", "result": 100, "unit": "%"}, {"measurement": "pest or weed control at 20 g/ha", "setting": "Myzus persicae; [1]", "result": 100, "unit": "%"}, {"measurement": "pest or weed control at 100 g/ha", "setting": "Myzus persicae; 100 g/ha, 5 days (5 dat), read-out: efficacy", "result": 90, "unit": "%"}, {"measurement": "pest or weed control at 100 g/ha", "setting": "Phaedon cochleariae", "result": 100, "unit": "%"}, {"measurement": "efficacy", "setting": "Tetranychus urticae; 4 g/ha, after 6 days", "result": 90, "unit": "%"}, {"measurement": "Emax at 20 g/ha", "setting": "Tetranychus urticae; Tetranychus urticae, 144 h, TETRUR, 20 g/ha, 6 dat, read-out: % efficacy", "result": 70, "unit": "%"}, {"measurement": "Emax at 100 g/ha", "setting": "Tetranychus urticae; [2]", "result": 70, "unit": "%"}, {"measurement": "Emax at 4 g/ha", "setting": "Nezara viridula", "result": 90, "unit": "%"}]}
{"smiles": "CCS(=O)(=O)c1ccc(N(C)C(=O)NC)nc1-c1nc2cc(C(F)(F)C(F)(F)F)nnc2n1C", "note": "[Example I-09]", "values": [{"measurement": "efficacy (kill)", "setting": "Ctenocephalides felis", "result": 100, "unit": "%"}, {"measurement": "pest or weed control at 20 ppm", "setting": "Meloidogyne incognita", "result": 100, "unit": "%"}, {"measurement": "Emax at 4 g/ha", "setting": "Myzus persicae", "result": 70, "unit": "%"}, {"measurement": "pest or weed control at 20 g/ha", "setting": "Myzus persicae; [1]", "result": 100, "unit": "%"}, {"measurement": "pest or weed control at 100 g/ha", "setting": "Phaedon cochleariae", "result": 100, "unit": "%"}, {"measurement": "Emax at 4 g/ha", "setting": "Phaedon cochleariae; PHAECO, 4 g/ha, 7 dat, read-out: % efficacy", "result": 83, "unit": "%"}, {"measurement": "percent efficacy (larval mortality) at a fixed application rate at 20 g/ha", "setting": "Phaedon cochleariae; PHAECO, 7 dat", "result": 100, "unit": "%"}, {"measurement": "Emax at 100 g/ha", "setting": "Tetranychus urticae; [2]", "result": 70, "unit": "%"}, {"measurement": "Emax at 4 g/ha", "setting": "Nezara viridula", "result": 70, "unit": "%"}]}
{"smiles": "CCS(=O)(=O)c1ccc(NC(=O)N(C)C)nc1-c1nc2cc(C(F)(F)C(F)(F)F)nnc2n1C", "note": "[Example I-10]", "values": [{"measurement": "efficacy (kill)", "setting": "Ctenocephalides felis", "result": 100, "unit": "%"}, {"measurement": "pest or weed control at 20 ppm", "setting": "Meloidogyne incognita", "result": 100, "unit": "%"}, {"measurement": "Emax at 4 g/ha", "setting": "Myzus persicae", "result": 70, "unit": "%"}, {"measurement": "pest or weed control at 20 g/ha", "setting": "Myzus persicae; [1]", "result": 100, "unit": "%"}, {"measurement": "pest or weed control at 100 g/ha", "setting": "Phaedon cochleariae", "result": 100, "unit": "%"}, {"measurement": "Emax at 100 g/ha", "setting": "Tetranychus urticae; [2]", "result": 70, "unit": "%"}, {"measurement": "Emax at 4 g/ha", "setting": "Nezara viridula", "result": 80, "unit": "%"}]}
{"smiles": "CCNC(=O)Nc1ccc(S(=O)(=O)CC)c(-c2nc3cc(C(F)(F)C(F)(F)F)nnc3n2C)n1", "note": "[Example I-13]", "values": [{"measurement": "efficacy (kill)", "setting": "Ctenocephalides felis", "result": 100, "unit": "%"}, {"measurement": "pest or weed control at 20 ppm", "setting": "Meloidogyne incognita", "result": 100, "unit": "%"}, {"measurement": "pest or weed control at 20 g/ha", "setting": "Myzus persicae; [1]", "result": 90, "unit": "%"}, {"measurement": "pest or weed control at 100 g/ha", "setting": "Phaedon cochleariae", "result": 100, "unit": "%"}, {"measurement": "percent efficacy (larval mortality) at a fixed application rate at 4 g/ha", "setting": "Phaedon cochleariae; PHAECO, 4 g/ha, 7 dat", "result": 100, "unit": "%"}, {"measurement": "percent efficacy (larval mortality) at a fixed application rate at 20 g/ha", "setting": "Phaedon cochleariae; PHAECO, 7 dat", "result": 100, "unit": "%"}, {"measurement": "Emax at 4 g/ha", "setting": "Nezara viridula", "result": 80, "unit": "%"}]}
